Where two headings read alike, the source gives them in different places.
Assays:
[1] = system: MDR cancer cell models; assay: MTT viability in several MDR cancer cell models; assay type: cell-based, human; conditions: overexpression of ABC-transporters and/or altered glutathione metabolism, 72 hours
From the text: The following human cancer cell lines and their chemoresistant sublines were used in this study: the colon carcinoma cell line HCT-116 p53/wt and the p53 knock-out cell line HCT-116 p53/ko (generously donated by B. Vogelstein, Johns Hopkins University, Baltimore, MD, USA); the epidermal carcinoma-derived cell line KB-3-1 and the ABCB1-overexpressing subline KB-C-1 (generously donated by D.W. Shen, Bethesda, USA); the small cell lung carcinoma cell line GLC-4 and the ABCC1- and LRP-overexpressing subline GLC-4/ADR (from E.G. de Vries, Groningen, Netherlands); the ovarian carcinoma cell line A2780 and the cisplatin resistant subline A2780cis (purchased from Sigma-Aldrich); and the promyelocytic leukemia cell line HL60 and the mitoxantrone resistant subline HL60/mx (generously donated by G. Harker, Salt Lake City, USA). All cell lines were grown in RPMI 1640 supplemented with 10% fetal bovine serum with the exception of the HCT-116 cells, which were grown in McCoy’s medium with 10% serum.
Figure 4 Impact of different MDR mechanisms on the cytotoxicity of hellebrigenin. […] Viability was determined using a 3-(4,5-dimethythiazol-2-yl)-2,5-diphenyltetrazolium bromide (MTT) colorimetric assay. […]

[2] = system: NHDF fibroblasts; assay: MTT growth inhibition in non-cancerous control cell line; assay type: cell-based; conditions: normal human fibroblasts, read-out: in vitro growth inhibitory effects (IC50) in NHDF fibroblasts
From the text: The histological types and origins of the eight human cancer cell lines that were used for the MTT colorimetric assay are detailed in the legend of Table 1. Two mouse cancer cell lines were also used, the CT26.WT colon cancer cell line (ATCC code CRL-2638) and the B16F10 melanoma cell line (ATCC code CRL-6475). Both cell lines were obtained from the American Type Culture Collection (ATCC, Manassas, VA). A control cell line (human NHDF fibroblasts) was obtained from PromoCell (code c-12300; Heidelberg, Germany). The cell lines detailed in Figure 2A are a generous gift from the National Cancer Institute (NCI, Bethesda, USA) to Steven Karlish’s lab.
The cancer cells were cultured in RPMI (Lonza, Verviers, Belgium) medium supplemented with 10% heat-inactivated fetal calf serum (Lonza). All culture media were supplemented with 4 mM glutamine, 100 μg/mL gentamicin, 200 U/mL penicillin and 200 μg/mL streptomycin (Lonza). The NHDF fibroblasts were cultured in Lonza medium cc3132 KT FGM-2 BulletKit.
The overall growth level of the human cancer cell lines was determined using a colorimetric MTT (3-(4,5-dimethylthiazol-2yl)-2,5-diphenyltetrazolium bromide, Sigma, Belgium) assay as detailed previously. Briefly, this test measures the number of metabolically active (thus living) cells that are able to transform the yellow MTT into the blue formazan dye via a mitochondrial reduction involving succinate dehydrogenase. The amount of formazan obtained at the end of the experiment (measured by spectrophotometry) is directly proportional to the number of living cells. The determination of the optical density in the control compared to the treated cells therefore enables quantitative measurements of the effects of compounds on the growth of normal as well as cancer cells in vitro.
Each experimental condition was performed in six replicates.

[3] = system: U373 glioma cells; assay: MTT colorimetric in vitro growth inhibition assay; assay type: cell-based, human; conditions: read-out: IC50 (nM) U373
Procedure, shortened: (§1)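 Cells grown in RPMI with 10% heat-inactivated FCS and 4 mM glutamine; growth measured by MTT reduction to formazan, read by spectrophotometry. Optical density of treated versus control cells gives growth inhibition. Six replicates per condition.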

[4] = system: MCF-7 breast cancer cells; assay: MTT colorimetric in vitro growth inhibition assay; assay type: cell-based, human; conditions: read-out: IC50 (nM) MCF-7
Procedure, shortened: as §1

[5] = system: A549 NSCLC cells; assay: MTT colorimetric in vitro growth inhibition assay; assay type: cell-based, human; conditions: read-out: IC50 (nM) A549
Procedure, shortened: as §1

[6] = system: PC-3 prostate cancer cells; assay: MTT colorimetric in vitro growth inhibition assay; assay type: cell-based, human; conditions: read-out: IC50 (nM) PC-3
Procedure, shortened: as §1

[7] = system: HT-29 colon cancer cells; assay: MTT colorimetric in vitro growth inhibition assay; assay type: cell-based, human; conditions: read-out: IC50 (nM) HT-29
Procedure, shortened: as §1

[8] = system: SKMEL-28 melanoma cells; assay: MTT colorimetric in vitro growth inhibition assay; assay type: cell-based, human; conditions: read-out: IC50 (nM) SKMEL-28
Procedure, shortened: as §1

[9] = system: Hs683 glioma cells; assay: MTT colorimetric in vitro growth inhibition assay; assay type: cell-based, human; conditions: read-out: IC50 (nM) Hs683
Procedure, shortened: as §1

[10] = system: T98G glioma cells; assay: MTT colorimetric in vitro growth inhibition assay; assay type: cell-based, human; conditions: read-out: IC50 (nM) T98G
Procedure, shortened: as §1

[11] = biological target: T1, human α3β1 NaK complex (Homo sapiens, UniProt P13637); assay: 3H-ouabain competitive displacement on P. pastoris membranes; assay type: binding; conditions: for Kd: 3H-ouabain displacement, three independent experiments, read-out: Affinity (nM) α-3 (KD ± SEM); for Selectivity α-1 / α-3: ratio of KD α-1 to KD α-3
T1 construct: made in house; host or cells: Pichia pastoris strain SMD1165 (membranes)
Description: (§2) K0.5 was calculated using a one site inhibition model: B/BCG=0 = K0.5/([CG] + K0.5). […] Binding of each cardiac glycoside was estimated in 3 separate experiments.
(§3) Average KD or Ki values ± SEM for each isoform were calculated. Statistical significance was calculated by the unpaired Students t-test. P values <0.05 were considered significant.

[12] = biological target: T2, human α1β1 NaK complex (Homo sapiens, UniProt P05023); assay: as above; assay type: binding; conditions: for Kd: 3H-ouabain displacement, three independent experiments, read-out: Affinity (nM) α-1 (KD ± SEM); for fold higher affinity for α1 than for the α2 and α3 subunits: from Table 2 KD values
T2 construct: made in house; host or cells: Pichia pastoris strain SMD1165 (membranes)
Description: as §2, §3

[13] = biological target: T3, human α2β1 NaK complex (Homo sapiens, UniProt P50993); assay: as above; assay type: binding; conditions: for Kd: 3H-ouabain displacement, three independent experiments, read-out: Affinity (nM) α-2 (KD ± SEM); for Selectivity α-1 / α-2: ratio of KD α-1 to KD α-2
T3 construct: made in house; host or cells: Pichia pastoris strain SMD1165 (membranes)
Description: as §2, §3

[14] = three days of culture, * three independent experiments, ** one experiment, six replicates

C[C@@H]1O[C@@H](O[C@H]2CC[C@]3(C=O)[C@H]4CC[C@]5(C)[C@@H](c6ccc(=O)oc6)CC[C@]5(O)[C@@H]4CC[C@]3(O)C2)[C@H](O)[C@H](O)[C@H]1O[C@@H]1O[C@H](CO)[C@@H](O)[C@H](O)[C@H]1O [Hellebrin]
activity in several MDR cancer cell models versus parental cells [1]: equally active | IC50 ([2]; NHDF): > 10 µM | IC50 ([3]; Homo sapiens, U373 MG, 72 h): 41 ± 2 nM | IC50 ([4]; Homo sapiens, MCF7, 72 h): 58 ± 12 nM | IC50 ([5]; Homo sapiens, A549, 72 h): 6 ± 1 nM | IC50 ([6]; Homo sapiens, 72 h): 11 ± 1 nM | IC50 ([7]; Homo sapiens, HT-29, 72 h): 27 ± 4 nM | IC50 ([8]; Homo sapiens, SK-MEL-28, 72 h): 40 ± 5 nM | IC50 ([9]; Homo sapiens, Hs 683, 72 h): 7 ± 1 nM | IC50 ([10]; Homo sapiens, T98G, 72 h): 30 ± 1 nM | Kd [11]: 175 ± 20 nM | Selectivity α-1 / α-3 [11]: 0.5 | Kd [12]: 86 ± 18 nM | fold higher affinity for α1 than for the α2 and α3 subunits [12]: ~ 2 fold | Kd [13]: 218 ± 52 nM | Selectivity α-1 / α-2 [13]: 0.4

C[C@]12CC[C@H]3[C@@H](CC[C@]4(O)C[C@@H](O)CC[C@]34C=O)[C@@]1(O)CC[C@@H]2c1ccc(=O)oc1 [Hellebrigenin]
activity in several MDR cancer cell models versus parental cells [1]: equally active | IC50 [2]: > 10 µM | IC50 [3, 14]: 9 ± 1 nM | IC50 [4, 14]: 42 ± 2 nM | IC50 [5, 14]: 3 ± 1 nM | IC50 [6, 14]: 18 ± 1 nM | IC50 [7, 14]: 9 ± 1 nM | IC50 [8, 14]: 28 ± 9 nM | IC50 [9, 14]: 6 ± 1 nM | IC50 [10, 14]: 9 ± 1 nM | Kd [11]: 191 ± 23 nM | Selectivity α-1 / α-3 [11]: 0.5 | Kd [12]: 103 ± 19 nM | fold higher affinity for α1 than for the α2 and α3 subunits [12]: ~ 2 fold | Kd [13]: 198 ± 51 nM | Selectivity α-1 / α-2 [13]: 0.5

Source: publication PMC3722118, “Hellebrin and its aglycone form hellebrigenin display similar in vitro growth inhibitory effects in cancer cells and binding profiles to the alpha subunits of the Na^+/K^+-ATPase” (Molecular Cancer, 2013)
